The test system of experiment [1] is HUVEC cell. In words: Cell Proliferation Inhibition VEGF-R2 Assay (SRB method). Format: cell-based, homo sapient. Particulars: Homo sapiens; HUVEC cells, 72 hours exposure, Sulforhodamine B; read-out: IC50 (VEGFR/HUVEC). From the text:
The following in vitro assay may be used to determine the level of activity and effect of different compounds of the present invention on the proliferation inhibition (cell toxic) of endothelium growth factor receptor (VEGFR) high expressing homo […] cancer cell-HUVEC cell. The cellular assay described here measure the compounds of their anti-angiogenesis and proliferation inhibition activity and effect through […] on the cancer cells in vitro. The effect and activity is represented by the IC50 value that kills the cancer cell. […] The homo […] highly express […] are chosen and seeded to 96-well cell culture plate at a suitable concentration (exp 5000 cells/ml medium). The cells then are cultured in carbon dioxide (CO2) incubator till when they confluence to about 85%. Then, the cell culture medium is replaced by fresh one with tested compounds added in it at serial concentrations (general 6 to 7 concentrations). Then the cells are put back to the culture and cultured for continuous 72 hours. 72 hours later, the cell exposed to compounds and control cell are assayed for their proliferation using Sulforhodamine B (SRB) method. […] Dimethyl sulfoxide (Sinophma chemical reagent company, catalog No. T20050806) • b. HUVEC cells (Purchased from Institute of biochemistry and cell biology) • c. […] Acetic Acid (Sinophma chemical reagent company, Catalog No. T20060508) • l. Trichloroacetic Acid (Sinophma chemical reagent company, Catalog No. T20060305) • m. […] Class II A/B3 Biological safety cabinet (ThermoForma Catalog No. HB0053-03) • o. […] Centrifuge (Fisher Scientific Marathon 8 k, Catalog No. 0027-02) • q. Novastar Plate reader (BMG Labtech, Catalog No. 700-0081) • r. […] Growing seeded 96-well plates at 37° C., 5% CO2, till 85% confluence. • 4. Prepare compounds stock solution, using DMSO solve candidate compounds to a concentration of 20 mM. […] Use cell culture medium (in this case, DMEM/F12+10% FBS) to dilute the compounds solution prepared above. Each DMSO serial concentration compound solution is diluted by 20 times with culture medium by adding 5 μl DMSO compound solution to 95 μl culture medium, then mix well by vortex. […] After HUVEC cell has attached to the dish bottom and confluence about 85%, change the culture medium with fresh DMEM/F12 plus 10% FBS. Each well added 180 μl medium, then add 20 μl medium solution of tested compounds prepared at step 5 to each well. For control group cell, add 20 μl culture medium containing 0.5% pure DMSO. […] Each 96-well plate, we can test 3 compounds with a control cell group. • 7. Put the culture plates back to incubator, culture for 72 hours at 37° C., 5% CO2. • 8. 72 hours later, remove cultures from incubator into sterile work area. • 9. Prepare fixative (50% Trichloroacetic Acid-TCA) by adding reagent grade water to the TCA, fix the cells by gently layering 50 μl of cold TCA solution on top of the growth medium. • 10. Incubate plates for 1 hour at 4° C. and then rinse with water several times to remove TCA, serum proteins, etc. Plates are air dried and stored until use. Bland background optical density is measured in wells incubated with growth medium without cells. • 11. Use 10% acetic acid solution to prepare 0.4% Sulforhodamine B solution. Add 50 μl sulforhodamine B solution to each well of 96-well plates. • 12. Allow cells to stain for 30 minutes. • 13. Prepared the wash solution of […] acetic acid. At the end of the staining period, the stain is removed and the cells rinsed quickly with 1% acetic acid. Repeat until unincorporated dye is removed. Keep wash times to a minimum to reduce desorption of protein-bound dye. After being rinsed, the cultures are air dried until no moisture is visible. • 14. The incorporated dye is then solubilized in a volume of Sulforhodamine B assay Solubilization solution (10 mM Tris) equal to the original volume of culture medium. Allow cultures to stand for 5 minutes at room temperature.
For orientation: The SRB assay estimates cell density from bound dye.

The test system of experiment [2] is A431 cell. In words: Cell Proliferation Inhibition EGFR Assay (SRB method). Format: cell-based, homo sapient. Particulars: Homo sapiens, A-431; A431 cells, 72 hours exposure, Sulforhodamine B; read-out: IC50 (A431). From the text:
The following in vitro assay may be used to determine the level of activity and effect of different compounds of the present invention on the proliferation inhibition (cell toxic) of […] growth factor receptor (EGFR) high expressing homo […] cancer cell-A431 cell. The cellular assay described here measure the compounds of their anti-angiogenesis and proliferation inhibition activity and effect through EGFR on the cancer cells in vitro. The effect and activity is represented by the IC50 value that kills the cancer cell. […] The homo […] highly express EGFR are chosen and seeded to 96-well cell culture plate at a suitable concentration (exp 5000 cells/ml medium). The cells then are cultured in carbon dioxide (CO2) incubator till when they confluence to about 85%. Then, the cell culture medium is replaced by fresh one with tested compounds added in it at serial concentrations (general 6 to 7 concentrations). Then the cells are put back to the culture and cultured for continuous 72 hours. 72 hours later, the cell exposed to compounds and control cell are assayed for their proliferation using Sulforhodamine B (SRB) method. Compounds IC50 on tested cells are calculated by the data of inhibition rates of serial concentrations of the tested compounds. • a. Dimethyl sulfoxide (Sinophma chemical reagent company, catalog No. T20050806) • b. A431 cells (Purchased from Institute of biochemistry and cell biology) • c. Falcon 100 mm cell culture plates (Baton Dickison Labware, Baton Dickison and company, • Catalog No. 18677) • d. coming 96-well culture cluster (Corning Incorporated, Catalog No. 3599) • e. Fisher Pipette (Fisher scientific, Catalog No. 03-692-164) • f. DMEM/F12 cell medium (Gibco, Catalog No. 12400-024) • g. Fetal bovine serum, origin from Australia (Gibco, Catalog No. 10099-141) • h. […] Sulforhodamine B (Sigma, Catalog No. 3520-42-1) • k. Acetic Acid (Sinophma chemical reagent company, Catalog No. T20060508) • l. Trichloroacetic Acid (Sinophma chemical reagent company, Catalog No. T20060305) • m. Tris base (Amresco, Catalog No. 0826) • n. Class II A/B3 Biological safety cabinet (ThermoForma Catalog No. HB0053 03) • o. Series II water jacketed CO2 incubator (ThermoForma Model: 3111) • p. Centrifuge (Fisher Scientific Marathon 8 k, Catalog No. 0027-02) • q. Novastar Plate reader (BMG Labtech, Catalog No. 700 0081) • r. Orbital Shaker (Qilinbeier, Catalog No. TS-1) Protocol: […] Growing seeded 96-well plates at 37° C., 5% CO2, till 85% confluence. • 4. Prepare compounds stock solution, using DMSO solve candidate compounds to a concentration of 20 mM. […] Use cell culture medium (in this case, DMEM/F12+10% FBS) to dilute the compounds solution prepared above. Each DMSO serial concentration compound solution is diluted by 20 times with culture medium by adding 5 μl DMSO compound solution to 95 μl culture medium, then mix well by vortex. This promise that the DMSO concentration at that the A431 cell will exposed to will not surpass 0.5%. • 6. […] Each well added 180 μl medium, then add 20 μl medium solution of tested compounds prepared at step 5 to each well. For control group cell, add 20 μl culture medium containing 0.5% pure DMSO. […] Each 96-well plate, we can test 3 compounds with a control cell group. • 7. Put the culture plates back to incubator, culture for 72 hours at 37° C., 5% CO2. • 8. 72 hours later, remove cultures from incubator into sterile work area. • 9. Prepare fixative (50% Trichloroacetic Acid-TCA) by adding reagent grade water to the TCA, fix the cells by gently layering […] of cold TCA solution on top of the growth medium. • 10. Incubate plates for 1 hour at 4° C. and then rinse with water several times to remove TCA, serum proteins, etc. Plates are air dried and stored until use. Bland background optical density is measured in wells incubated with growth medium without cells. • 11. Use 10% acetic acid solution to prepare 0.4% Sulforhodamine B solution. Add 50 μl sulforhodamine B solution to each well of 96-well plates. • 12. […]

`CCN(CC)CCN1CCc2[nH]c(/C=C3\C(=O)Nc4ccc(NS(C)(=O)=O)cc43)c(C)c2C1=O` [Example 10, N-{3-[5-(2-Diethylamino-ethyl)-3-methyl-4-oxo-4,5,6,7-tetrahydro-1H-pyrrolo[3,2-c]pyridine-2-ylmethylene]-2-oxo-2,3-dihydro-1H-indol-5-yl}-methanesulfonamide]: the IC50 in experiment [1] was found to be 0.36 µM. In the case of `Cc1c(/C=C2\C(=O)Nc3cccc(-c4cccc(F)c4F)c32)[nH]c2c1C(=O)N(CCN1CCOCC1)CC2` [Example 44, 2-[4-(2,3-Difluoro-phenyl)-2-oxo-1,2-dihydro-indol-3-ylidenemethyl]-3-methyl-5-(2-morpholin-4-yl-ethyl)-1,5,6,7-tetrahydro-pyrrolo[3,2-c]pyridin-4-one], in experiment [1], the IC50 was determined as 1.32 µM.

Regarding `COc1ccc2c(c1)/C(=C/c1[nH]c3c(c1C)C(=O)N(CCN1CCOCC1)CC3)C(=O)N2` [Example 45, 2-(5-Methoxy-2-oxo-1,2-dihydro-indol-3-ylidenemethyl)-3-methyl-5-(2-morpholin-4-yl-ethyl)-1,5,6,7-tetrahydro-pyrrolo[3,2-c]pyridin-4-one], the IC50 in experiment [1] turned out to be 1.15 µM. As for `CC(=O)Nc1cc2c(cc1F)/C(=C/c1[nH]c3c(c1C)C(=O)N(CCN1CCOCC1)CC3)C(=O)N2` [Example 19, N-{5-Fluoro-3-[3-methyl-5-(2-morpholin-4-yl-ethyl)-4-oxo-4,5,6,7-tetrahydro-1H-pyrrolo[3,2-c]pyridine-2-ylmethylene]-2-oxo-2,3-dihydro-1H-indol-6-yl}-acetamide], the IC50 in experiment [1] amounted to 2.56 µM. Same read-out and setting: for `O=C1Nc2ccc(Cl)cc2/C1=C/c1[nH]c2c(c1-c1ccc(F)cc1)C(=O)NCC2` [Example 58, 2-(5-Chloro-2-oxo-1,2-dihydro-indol-3-ylidenemethyl)-3-(4-fluoro-phenyl)-1,5,6,7-tetrahydro-pyrrolo[3,2-c]pyridin-4-one] the value was 3.99 µM; for `Cc1c(/C=C2\C(=O)Nc3cc(N)c(F)cc32)[nH]c2c1C(=O)N(CCN1CCOCC1)CC2` [Example 20, 2-(6-Amino-5-fluoro-2-oxo-1,2-dihydro-indol-3-ylidenemethyl)-3-methyl-5-(2-morpholin-4-yl-ethyl)-1,5,6,7-tetrahydro-pyrrolo[3,2-c]pyridin-4-one], 15.3 µM; for `Cc1c(/C=C2\C(=O)Nc3c(N)cc(F)cc32)[nH]c2c1C(=O)N(CCN1CCOCC1)CC2` [Example 21, 2-(7-Amino-5-fluoro-2-oxo-1,2-dihydro-indol-3-ylidenemethyl)-3-methyl-5-(2-morpholin-4-yl-ethyl)-1,5,6,7-tetrahydro-pyrrolo[3,2-c]pyridin-4-one], 2.1 µM. Same read-out and setting: under `O=C1Nc2ccc(F)cc2/C1=C/c1[nH]c2c(c1-c1ccc(F)cc1)C(=O)NCC2` [Example 46, 2-(5-Fluoro-2-oxo-1,2-dihydro-indol-3-ylidenemethyl)-3-(4-fluoro-phenyl)-1,5,6,7-tetrahydro-pyrrolo[3,2-c]pyridin-4-one] stands 10.5 µM; under `Cc1c(/C=C2\C(=O)Nc3ccc(Br)cc32)[nH]c2c1C(=O)N(CCN1CCOCC1)CC2` [Example 17, 2-(5-Bromo-2-oxo-1,2-dihydro-indol-3-ylidenemethyl)-3-methyl-5-(2-mopholin-4-yl-ethyl)-1,5,6,7-tetrahydro-pyrrolo[3,2-c]pyridin-4-one], 2.26 µM. Take `Cc1c(/C=C2\C(=O)Nc3cc(NCc4ccc(F)cc4)c(F)cc32)[nH]c2c1C(=O)N(CCN1CCCCC1)CC2` [Example 94, 2-[5-Fluoro-6-(4-fluoro-benzylamino)-2-oxo-1,2-dihydro-indol-3-ylidenemethyl]-3-methyl-5-(2-piperidin-1-yl-ethyl)-1,5,6,7-tetrahydro-pyrrolo[3,2-c]pyridin-4-one]: in experiment [2], the IC50 came out at 0.34 µM. As to `Cc1cccc2c1/C(=C/c1[nH]c3c(c1C)C(=O)N(CCN1CCOCC1)CC3)C(=O)N2` [Example 51, 3-Methyl-2-(4-methyl-2-oxo-1,2-dihydro-indol-3-ylidenemethyl)-5-(2-morpholin-4-yl-ethyl)-1,5,6,7-tetrahydro-pyrrolo[3,2-c]pyridin-4-one], in experiment [1], the IC50 was found to be 0.78 µM. In the case of `Cc1c(/C=C2\C(=O)Nc3cccc(CCO)c32)[nH]c2c1C(=O)N(CCN1CCCC1)CC2` [Example 75, 2-[4-(2-Hydroxy-ethyl)-2-oxo-1,2-dihydro-indol-3-ylidenemethyl]-3-methyl-5-(2-pyrrolidin-1-yl-ethyl)-1,5,6,7-tetrahydro-pyrrolo[3,2-c]pyridin-4-one], the IC50 in experiment [2] turned out to be 1.68 µM. Consider `Cc1c(/C=C2\C(=O)Nc3cc(NC(=O)CO)c(F)cc32)[nH]c2c1C(=O)N(CCN1CCCCC1)CC2` [Example 61, N-{5-Fluoro-3-[3-methyl-4-oxo-5-(2-piperidin-1-yl-ethyl)-4,5,6,7-tetrahydro-1H-pyrrolo[3,2-c]pyridin-2-ylmethylene]-2-oxo-2,3-dihydro-1H-indol-6-yl}-2-hydroxy-acetamide], for which, in experiment [2], the IC50 came out at 1.25 µM.

The values are drawn from patent US8697692B2, “Pyrrolo [3,2-c] pyridine-4-one 2-indolinone protein kinase inhibitors” (Shanghai Hengrui Pharmaceutical Co., Ltd., priority 2006, dated 2014).
